# Results taken from patent US20160289236A1, “Protein Kinase Inhibitors” (PHARMASCIENCE INC., priority 2013, published 2016).
# Columns and labels:
# [1] = test system: splenocytes; assay: Splenic cell proliferation assay (anti-IgM stimulated, Cell Titer-Glo); assay type: cell-based; details: Splenocyte; CD1 mouse splenocytes, 2.5 ug/ml anti-IgM F(ab')2 for 72 h, 1 h compound pre-treatment; read-out: EC50 (nM), Inhibition of splenic cell proliferation
# Procedure: Proliferation of splenocytes in response to anti-IgM can be blocked by inhibition of Btk. Splenocytes were obtained from 6 week old male CD1 mice (Charles River Laboratories Inc.). Mouse spleens were manually disrupted in PBS and filtered using a 70 um cell strainer followed by ammonium chloride red blood cell lysis. Cells were washed, resuspended in Splenocyte Medium (HyClone RPMI supplemented with 10% heat-inactivated FBS, 0.5× non-essential amino acids, 10 mM HEPES, 50 uM beta mercaptoethanol), and incubated at 37° C., 5% CO2 for 2 h, to remove adherent cells. Suspension cells were seeded in 96 well plates, at 50,000 cells per well, and incubated at 37° C., 5% CO2 for 1 h. Splenocytes were pre-treated in triplicate with 10,000 nM curves of Formula I, compounds for 1 h, followed by stimulation of cell proliferation with 2.5 ug/ml anti-IgM F(ab′)2 (Jackson Immuno Research) for 72 h. Cell proliferation was measured by Cell Titer-Glo Luminescent Assay (Promega). EC50 values (50% proliferation in the presence of compound, as compared to vehicle treated controls) were calculated from dose response compound curves using GraphPad Prism Software.
# [2] = target: T1, histidine tagged recombinant human full-length Bruton Agammaglobulinemia Tyrosine Kinase (Btk) (Homo sapiens, UniProt Q06187); assay: Btk kinase inhibition assay, Method A (fluorescence polarization, KinEASE FP Fluorescein Green); assay type: biochemical; details: 10 μM ATP, 250 μM substrate, 60 minutes, Ki calculated from IC50 with Cheng-Prusoff equation
# T1 construct: histidine tagged recombinant human full-length Bruton Agammaglobulinemia Tyrosine Kinase (Btk); His tag
# T1 sequence (Q06187 whole entry): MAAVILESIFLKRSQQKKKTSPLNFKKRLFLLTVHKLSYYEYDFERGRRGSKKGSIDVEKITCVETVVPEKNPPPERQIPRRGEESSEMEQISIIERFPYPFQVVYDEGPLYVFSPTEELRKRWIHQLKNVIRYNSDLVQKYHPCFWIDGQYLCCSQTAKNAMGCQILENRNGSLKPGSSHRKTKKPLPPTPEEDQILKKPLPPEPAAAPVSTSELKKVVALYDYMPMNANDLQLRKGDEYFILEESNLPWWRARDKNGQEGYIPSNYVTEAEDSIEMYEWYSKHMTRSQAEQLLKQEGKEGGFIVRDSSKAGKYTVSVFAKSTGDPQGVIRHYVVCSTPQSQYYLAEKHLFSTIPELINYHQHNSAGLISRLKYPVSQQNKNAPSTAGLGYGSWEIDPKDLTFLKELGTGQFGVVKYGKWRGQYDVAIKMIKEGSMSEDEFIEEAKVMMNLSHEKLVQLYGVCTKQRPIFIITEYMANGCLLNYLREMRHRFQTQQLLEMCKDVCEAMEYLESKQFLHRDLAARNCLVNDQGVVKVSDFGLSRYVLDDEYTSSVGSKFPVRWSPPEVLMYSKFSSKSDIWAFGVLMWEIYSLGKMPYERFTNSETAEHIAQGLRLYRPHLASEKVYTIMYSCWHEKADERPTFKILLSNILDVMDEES
# Procedure: Fluorescence polarization-based kinase assays were performed in 384 well-plate format using histidine tagged recombinant human full-length Bruton Agammaglobulinemia Tyrosine Kinase (Btk), and a modified protocol of the KinEASE™ FP Fluorescein Green Assay supplied from Millipore®. Kinase reaction were performed at room temperature for 60 minutes, in presence of 250 μM substrate, 10 μM ATP, and variable test article concentrations. The reaction was stopped with EDTA/kinease detection reagents. Phosphorylation of the substrate peptide was detected by fluorescence polarization, measured with a Tecan 500 instrument. From the dose-response curve obtained, the IC50 was calculated using Graph Pad Prisms®, using a non linear fit curve. The Km for ATP on each enzyme was experimentally determined and the Ki values calculated using the Cheng-Prusoff equation (see: Cheng Y, Prusoff W H. (1973) Relationship between the inhibition constant (K1), and the concentration of inhibitor which causes 50% inhibition (I50) of an enzymatic reaction”. Biochem Pharmacol 22 (23): 3099-108).
# [3] = target: T2, human BTK kinase (hBTK) (Homo sapiens, UniProt Q06187); assay: Btk kinase inhibition assay, Method B (KinaseProfiler radiometric protein kinase assay, Eurofins); assay type: biochemical; details: [γ-33P-ATP], 250 μM substrate, 40 minutes
# T2 construct: purchased Eurofins Pharma Discovery Services UK Limited
# T2 sequence (Q06187 whole entry): as above
# Procedure: In vitro potency of selected compound was defined against human BTK kinase (hBTK) using KinaseProfiler radiometric protein kinase assays performed at Eurofins Pharma Discovery Services UK Limited.
# hBTK kinase is diluted in buffer and all compounds were prepared to 50× final assay concentration in 100% DMSO. This working stock of the compound was added to the assay well as the first component in the reaction, followed by the remaining components as detailed in the assay protocol listed above. The reaction was initiated by the addition of the MgATP mix. The kinase reaction was performed at room temperature for 40 minutes, in presence of 250 μM substrate, 10 mM MgAcetate, [γ-33P-ATP] (specific activity approx. 500 cpm/pmol, concentration as required) and variable test article concentrations. The ATP concentrations in the assays were with 15 μM of the apparent. The reaction was stopped by the addition of 3% phosphoric acid solution. 10 μL of the reaction is then spotted onto a P30 filtermat and washed three times for 5 minutes in 75 mM phosphoric acid and once in methanol, prior to drying, and scintillation counting. […]
Ki [2],EC50 [3],Compound,EC50 [1]
< 100 nM,–,Cc1ccc(COc2cc(F)cc(Oc3ccc(-n4cc(C(C)C)c5ncnc(N)c54)cc3)c2)cn1 [Compound 1],< 100 nM
< 100 nM,–,Cc1ncc(COc2cc(F)cc(Oc3ccc(-n4cc(C(C)C)c5ncnc(N)c54)cc3)c2)s1 [Compound 2],< 100 nM
–,–,Cc1ncc(COc2cc(F)cc(Oc3ccc(-n4cc(C5CCCC5)c5ncnc(N)c54)cc3)c2)s1 [Compound 3],< 100 nM
–,–,Cc1ccc(COc2cc(F)cc(Oc3ccc(-n4cc(C5CCCC5)c5ncnc(N)c54)cc3)c2)cn1 [Compound 4],< 100 nM
< 100 nM,–,Cc1ccc(COc2cc(F)cc(Oc3ccc(-n4cc(C5CCOCC5)c5ncnc(N)c54)cc3)c2)cn1 [Compound 5],< 100 nM
< 100 nM,–,Cc1ncc(COc2cc(F)cc(Oc3ccc(-n4cc(C5CCOCC5)c5ncnc(N)c54)cc3)c2)s1 [Compound 6],< 100 nM
< 100 nM,–,Cc1ncc(COc2cc(F)cc(Oc3ccc(-n4cc(C5CCOCC5)c5ncnc(N)c54)cc3)c2)cn1 [Compound 7],< 100 nM
–,–,Cc1ncc(COc2cc(F)cc(Oc3ccc(-n4cc(C5CCCC5)c5ncnc(N)c54)cc3)c2)cn1 [Compound 8],< 100 nM
< 100 nM,–,Cc1ncc(COc2cc(F)cc(Oc3ccc(-n4cc(C(C)C)c5ncnc(N)c54)cc3)c2)cn1 [Compound 9],< 100 nM
–,–,Cc1ncc(COc2cc(F)cc(Oc3ccc(-n4cc(C5CC(CO)C5)c5ncnc(N)c54)cc3)c2)cn1 (stereo not drawn) [Compound 10],< 100 nM
–,< 100 nM,Cc1ncc(COc2cc(F)cc(Oc3ccc(-n4cc([C@H]5C[C@@H](O)C5)c5ncnc(N)c54)cc3)c2)cn1 [Compound 11],< 100 nM
